Active and inactive are the calls of the source.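 The calls were made as follows: active = EC50 at most 10 µM,% response shifting 30 points or more across doses, valid curve fit; inactive = the rest.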
Molecular target: Cell division control protein 42 homolog (Homo sapiens) (UniProt P60953)
Assay: inhibitors of wildtype Cdc42 GTP binding, SAR follow-up, biochemical, bead multiplex, flow cytometry, round 1 (AID 588385)
Details: GST-Cdc42 wt beads, Bodipy-GTP binding; for % response (lower = inhibition): at 100 µM (top of the series)

Sequence of Cell division control protein 42 homolog (Homo sapiens) (P60953 whole entry, looked up): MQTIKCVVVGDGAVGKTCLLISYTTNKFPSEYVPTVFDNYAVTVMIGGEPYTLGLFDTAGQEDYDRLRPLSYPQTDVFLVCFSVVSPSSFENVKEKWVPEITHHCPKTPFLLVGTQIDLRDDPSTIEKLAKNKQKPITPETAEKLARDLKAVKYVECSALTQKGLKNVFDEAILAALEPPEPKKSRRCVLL

% response (lower = inhibition) | EC50 [nM] | SMILES
 | 82 | COc1cccc(C(=O)NC(=S)Nc2sc3c(c2C(=O)O)CC(C)(C)OC3)c1
 | 80 | CC1(C)Cc2c(sc(NC(=S)NC(=O)c3ccccc3F)c2C(=O)O)CO1
inactive |  | CC1(C)Cc2c(sc(NC(=O)NC(=O)c3ccccc3)c2C(=O)O)CO1
 | 501 | COc1ccc(C(=O)NC(=S)Nc2sc3c(c2C(=O)O)CC(C)(C)OC3)cc1
inactive |  | COC(=O)c1c(NC(=S)NC(=O)c2ccccc2)sc2c1CC(C)(C)OC2
 | 452 | CC1(C)Cc2c(sc(NC(=S)NC(=O)c3ccc(Br)cc3)c2C(=O)O)CO1
 | 91 | CC1(C)Cc2c(sc(NC(=S)NC(=O)c3ccccc3Br)c2C(=O)O)CO1
inactive |  | CC1(C)Cc2c(sc(NC(=S)NC(=O)c3cccc(Br)c3)c2C(=O)O)CO1
 | 319 | CC1(C)Cc2c(sc(NC(=S)NC(=O)c3cccc(F)c3)c2C(=O)O)CO1
inactive |  | CC1(C)Cc2c(sc(NC(=S)Nc3ccccc3)c2C(=O)O)CO1

Continued, compound first:

SMILES | % response (lower = inhibition) | EC50 [nM]
COC(=O)c1c(N)sc2c1CC(C)(C)OC2 | inactive | 
CC1Cc2c(sc(NC(=S)NC(=O)c3ccccc3)c2C(=O)O)CO1 (stereo unspecified) |  | 405
CCOC(=O)c1c(NC(=S)NC(=O)c2ccccc2)sc2ccccc12 | inactive | 
Cc1ccc(Nc2nc3sc4c(c3c(=O)o2)CCN(C)C4)cc1 | inactive | 
CC1(C)CCc2sc(NC(=S)NC(=O)c3ccccc3)c(C(=O)O)c2C1 |  | 168
CCOC(=O)c1c(N)sc2ccccc12 | inactive | 
CCOC(=O)c1c(NC(=O)Nc2ccc(C)cc2)sc2c1CCN(C)C2 | inactive | 
CCOC(=O)c1c(NC(=O)Nc2ccc(F)cc2)sc2c1CCN(C)C2 | inactive | 
CN1CCc2c(sc3nc(Nc4ccc(F)cc4)oc(=O)c23)C1 | inactive | 
CC1(C)Cc2c(sc(NC(=O)Cc3ccccc3)c2C(=O)O)CO1 | inactive | 
CCOC(=O)c1c(NC(=S)Nc2ccccc2)sc2c1CC(C)(C)OC2 | inactive | 
O=C(NC(=S)Nc1sc2c(c1C(=O)O)CCOC2)c1ccccc1 |  | 40
CN1CCc2c(sc(NC(=O)Nc3ccc(F)cc3)c2C(=O)O)C1 | inactive | 
CC(C)(C)OC(=O)c1c(NC(=S)NC(=O)c2ccccc2)sc2c1CCOC2 | inactive | 
Cc1ccc(NC(=O)Nc2sc3c(c2C(=O)O)CCN(C)C3)cc1 | inactive | 
CCOC(=O)c1c(NC(=O)NC(C)(C)C)sc2c1CCN(C)C2 | inactive | 
